Structures can show the parent of a compound that is named as a salt.

As a reminder, the IC50 is the concentration needed to halve the response being measured. As usually defined, the Ki is the dissociation constant of the complex between target and ligand, obtained from inhibition or displacement. A high value points to a looser hold on the target.

Chain of PLK1 (P53350 whole entry): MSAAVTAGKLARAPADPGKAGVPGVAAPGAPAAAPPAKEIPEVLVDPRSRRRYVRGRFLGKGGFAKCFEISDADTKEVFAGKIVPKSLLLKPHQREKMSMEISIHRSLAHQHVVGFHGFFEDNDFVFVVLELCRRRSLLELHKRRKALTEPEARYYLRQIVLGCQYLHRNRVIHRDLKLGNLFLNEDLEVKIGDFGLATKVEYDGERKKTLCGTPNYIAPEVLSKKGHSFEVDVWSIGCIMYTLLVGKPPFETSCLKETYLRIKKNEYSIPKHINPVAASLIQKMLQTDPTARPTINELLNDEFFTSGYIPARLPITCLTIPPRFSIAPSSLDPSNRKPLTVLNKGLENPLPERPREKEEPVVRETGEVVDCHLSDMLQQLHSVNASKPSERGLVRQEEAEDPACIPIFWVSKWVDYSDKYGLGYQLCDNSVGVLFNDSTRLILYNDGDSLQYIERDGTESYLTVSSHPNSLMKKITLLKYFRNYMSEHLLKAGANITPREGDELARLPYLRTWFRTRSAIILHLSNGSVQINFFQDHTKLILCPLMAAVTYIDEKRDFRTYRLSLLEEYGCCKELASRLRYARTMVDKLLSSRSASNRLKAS

The first assay addresses PLK1 (Homo sapiens, UniProt P53350). Briefly: PLK1 protein kinase assay (CDC25C phosphorylation, [γ-32P]-ATP). In kind it is biochemical.
Conditions: not given
As for `COc1cc(C(=O)NC2CCN(C)CC2)ccc1Nc1ncc2c(n1)N(C1CCCC1)C(C)CC(=O)N2C` (stereo not drawn) [compound 33, 4-(9-Cyclopentyl-5,8-dimethyl-6-oxo-6,7,8,9-tetrahydro-5H-pyrimido[4,5-b][1,4]diazepin-2-ylamino)-3-methoxy-N-(1-methyl-piperidin-4-yl)-benzamide], the IC50 was under 1 µM.

The same assay, now with this note: Table 1; read-out: PLK1 IC50.
Regarding `COc1cc(C(=O)NC2CCN(C)CC2)ccc1Nc1ncc2c(n1)N(C1CCCCC1)CCC(=O)N2` [compound 39, 4-(9-Cyclohexyl-6-oxo-6,7,8,9-tetrahydro-5H-pyrimido[4,5-b][1,4]diazepin-2-ylamino)-3-methoxy-N-(1-methyl-piperidin-4-yl)-benzamide], the IC50 was under 10 µM.
`CC1CC(=O)N(C)c2cnc(Nc3ccc(O)cc3)nc2N1C1CCCC1` (stereo not drawn) [compound 13, 9-Cyclopentyl-2-(4-hydroxy-phenylamino)-5,8-dimethyl-5,7,8,9-tetrahydro-pyrimido[4,5-b][1,4]diazepin-6-one]: the half-maximal inhibitory concentration (IC50) was under 10 µM.
Same read-out and setting: as for `CC1CC(=O)Nc2cnc(Nc3ccc(C(=O)NC4CCN(C)CC4)cc3)nc2N1C1CCCC1` (stereo not drawn) [compound 38, 4-(9-Cyclopentyl-8-methyl-6-oxo-6,7,8,9-tetrahydro-5H-pyrimido[4,5-b][1,4]diazepin-2-ylamino)-N-(1-methyl-piperidin-4-yl)-benzamide], the figure is under 1 µM.

The assay is the same for the next values; noted with them: Table 2, PLK1 IC50; class symbols; read-out: PLK1 IC50.
In the case of `COc1cc(C(=O)NC2CCN(C)CC2)ccc1Nc1ncc2c(n1)N(CCC(=O)N(C)C)CCC(=O)N2C` [compound 225, 4-[9-(2-Dimethylcarbamoyl-ethyl)-5-methyl-6-oxo-6,7,8,9-tetrahydro-5H-pyrimido[4,5-b][1,4]diazepin-2-ylamino]-3-methoxy-N-(1-methyl-piperidin-4-yl)-benzamide], the IC50 is under 1 µM.
On the same count and under the same terms, as for `COc1cc(C(=O)NC2CN3CCC2CC3)ccc1Nc1ncc2c(n1)N(C1CCCC1)CCC(=O)N2C` (stereo not drawn) [compound 161, N-(1-Aza-bicyclo[2.2.2]oct-3-yl)-4-(9-cyclopentyl-5-methyl-6-oxo-6,7,8,9-tetrahydro-5H-pyrimido[4,5-b][1,4]diazepin-2-ylamino)-3-methoxy-benzamide], the figure is under 0.1 µM; as for `COc1cc(C(=O)NC2CCN(C3CCOCC3)CC2)ccc1Nc1ncc2c(n1)N(C1CCCC1)CCC(=O)N2C` [Compound 345, 4-(9-Cyclopentyl-5-methyl-6-oxo-6,7,8,9-tetrahydro-5H-pyrimido[4,5-b][1,4]diazepin-2-ylamino)-3-methoxy-N-[1-(tetrahydro-pyran-4-yl)-piperidin-4-yl]-benzamide], under 0.1 µM.
`CNC(=O)c1ccc(Nc2ncc3c(n2)N(C)CCC(=O)N3C)c(OC)c1` [compound 112, 4-(5,9-Dimethyl-6-oxo-6,7,8,9-tetrahydro-5H-pyrimido[4,5-b][1,4]diazepin-2-ylamino)-3-methoxy-N-methyl-benzamide]: the IC50 is under 10 µM.
Same read-out and setting: as for `COCCNC(=O)c1ccc(Nc2ncc3c(n2)N(C2CCCC2)CC(C)(C)C(=O)N3C)c(OC)c1` [compound 198, 4-(9-Cyclopentyl-5,7,7-trimethyl-6-oxo-6,7,8,9-tetrahydro-5H-pyrimido[4,5-b][1,4]diazepin-2-ylamino)-3-methoxy-N-(2-methoxy-ethyl)-benzamide], the figure is under 1 µM; as for `COc1ccc(C(=O)NCCO)cc1Nc1ncc2c(n1)N(C1CCCC1)CCC(=O)N2C` [compound 145, 3-(9-Cyclopentyl-5-methyl-6-oxo-6,7,8,9-tetrahydro-5H-pyrimido[4,5-b][1,4]diazepin-2-ylamino)-N-(2-hydroxy-ethyl)-4-methoxy-benzamide], under 1 µM.
For the compound `CCOC(=O)CN1CCC(NC(=O)c2ccc(Nc3ncc4c(n3)N(C3CCCC3)CCC(=O)N4C)c(OC)c2)CC1` [compound 211, {4-[4-(9-Cyclopentyl-5-methyl-6-oxo-6,7,8,9-tetrahydro-5H-pyrimido[4,5-b][1,4]diazepin-2-ylamino)-3-methoxy-benzoylamino]-piperidin-1-yl}-acetic acid ethyl ester], the half-inhibitory concentration (IC50) is under 1 µM.
As for `COc1cc(C(=O)NC2CCN(C)CC2)ccc1Nc1ncc2c(n1)N(C1CCCC1)CC1(CCCC1)C(=O)N2C` [compound 101, 4-(9-Cyclopentyl-5-methyl-6-oxo-6,7.8,9-tetrahydro-5H-spiro[pyrimido[4,5-b][1,4]diazepin-3,1′-cyclopentane]-2-ylamino)-3-methoxy-N-(1-methyl-piperidin-4-yl)-benzamide], the IC50 is under 1 µM.
For the compound `COc1cc(C(=O)NC2CN3CCC2CC3)ccc1Nc1ncc2c(n1)N(c1ccccc1C)CCC(=O)N2C` (stereo not drawn) [compound 311, N-(1-Aza-bicyclo[2.2.2]oct-3-yl)-3-methoxy-4-(5-methyl-6-oxo-9-o-tolyl-6,7,8,9-tetrahydro-5H-pyrimido[4,5-b][1,4]diazepin-2-ylamino)-benzamide], the concentration for half-maximal inhibition (IC50) was under 1 µM.
Regarding `CNC(=O)c1ccc(OC)c(Nc2ncc3c(n2)N(C2CCCC2)CCC(=O)N3C)c1` [compound 144, 3-(9-Cyclopentyl-5-methyl-6-oxo-6,7,8,9-tetrahydro-5H-pyrimido[4,5-b][1,4]diazepin-2-ylamino)-4-methoxy-N-methyl-benzamide], the half-maximal inhibitory concentration (IC50) is under 1 µM.
Same read-out and setting: under `COc1cc(C(=O)NCCCCO)ccc1Nc1ncc2c(n1)N(C1CCCC1)CC1(CC1)C(=O)N2C` [compound 185, 4-(9-Cyclopentyl-5-methyl-6-oxo-6,7,8,9-tetrahydro-5H-spiro[pyrimido[4,5-b][1,4]diazepin-3,1′-cyclopropane]-2-ylamino)- -N-(4-hydroxy-butyl)-3-methoxy-benzamide] stands under 0.1 µM; under `COc1cc(C(=O)NCc2cccn2C)ccc1Nc1ncc2c(n1)N(C1CCCC1)CC1(CC1)C(=O)N2C` [compound 259, 4-(9-Cyclopentyl-5-methyl-6-oxo-6,7,8,9-tetrahydro-5H-pyrimido[4,5-b][1,4]diazepin-3,1′-cyclopropane-2-ylamino)-3-methoxy-N-(1-methyl-1 H-pyrrol-2-ylmethyl)-benzamide], under 0.1 µM; under `COc1ccc(C(=O)NCCOCCO)cc1Nc1ncc2c(n1)N(C1CCCC1)CCC(=O)N2C` [compound 263, 3-(9-Cyclopentyl-5-methyl-6-oxo-6,7,8,9-tetrahydro-5H-pyrimido[4,5-b][1,4]diazepin-2-ylamino)-N-[2-(2-hydroxy-ethoxy)-ethyl]-4-methoxy-benzamide], under 1 µM.
On to `COc1cc(C(=O)NC(C)(C)CN2CCCCC2)ccc1Nc1ncc2c(n1)N(C1CCCC1)CC1(CC1)C(=O)N2C` [compound 251, 4-(9-Cyclopentyl-5-methyl-6-oxo-6,7,8,9-tetrahydro-5H-pyrimido[4,5-b][1,4]diazepin-3,1′-cyclopropane-2-ylamino)-N-(1,1-dimethyl-2-piperidin-1-yl-ethyl)-3-methoxy-benzamide], for which the half-inhibitory concentration (IC50) is under 1 µM.
On the same count and under the same terms, as for `COc1ccc(C(=O)NCCCO)cc1Nc1ncc2c(n1)N(C1CCCC1)CCC(=O)N2C` [compound 233, 3-(9-Cyclopentyl-5-methyl-6-oxo-6,7,8,9-tetrahydro-5H-pyrimido[4,5-b][1,4]diazepin-2-ylamino)-N-(3-hydroxy-propyl)-4-methoxy-benzamide], the figure is under 1 µM; as for `COc1ccccc1Nc1ncc2c(n1)N(C1CCCC1)CCC(=O)N2C` [compound 60, 9-Cyclopentyl-2-(2-methoxy-phenylamine)-5-methyl-5,7,8,9-tetrahydro-pyrimido[4,5-b][1,4]diazepin-6-one], under 1 µM; as for `COc1cc(C(=O)NCc2cccn2C)ccc1Nc1ncc2c(n1)N(C1CCCC1)CCC(=O)N2C` [compound 205, 4-(9-Cyclopentyl-5-methyl-6-oxo-6,7,8,9-tetrahydro-5H-pyrimido[4,5-b][1,4]diazepin-2-ylamino)-3-methoxy-N-(1-methyl-1H-pyrrol-2-ylmethyl)-benzamide], under 0.1 µM.
Take `COc1cc(C(=O)NC2CC(C)(C)N(C)C(C)(C)C2)ccc1Nc1ncc2c(n1)N(c1ccccc1C)CCC(=O)N2C` [compound 312, 3-Methoxy-4-(5-methyl-6-oxo-9-o-tolyl-6,7,8,9-tetrahydro-5H-pyrimido[4,5-b][1,4]diazepin-2-ylamino)-N-(1,2,2,6,6-pentamethyl-piperidin-4-yl)-benzamide]: the IC50 was under 10 µM.

Staying with this assay, now noted: Table 3; read-out: PLK1 IC50.
With `CCN1CCN([C@H]2CC[C@@H](NC(=O)c3ccc(Nc4ncc5c(n4)N(C4CCCC4)CC4(CC4)C(=O)N5C)c(OC)c3)CC2)CC1` [Compound 380, 4-(9′-cyclopentyl-5′-methyl-6′-oxo-5′,6′,8′,9′-tetrahydrospiro[cyclopropane-1,7′-pyrimido[4,5-b][1,4]diazepine]-2′-ylamino)-N-((cis)-4-(4-ethylpiperazin-1-yl)cyclohexyl)-3-methoxybenzamide], the 50% inhibitory concentration (IC50) is under 0.1 µM.
Regarding `COc1cc(C(=O)NC2CCN(C3CCOCC3)CC2)ccc1Nc1ncc2c(n1)N(C1CCCC1)CCC(=O)N2C` [Compound 345, 4-(9-Cyclopentyl-5-methyl-6-oxo-6,7,8,9-tetrahydro-5H-pyrimido[4,5-b][1,4]diazepin-2-ylamino)-3-methoxy-N-[1-(tetrahydro-pyran-4-yl)-piperidin-4-yl]-benzamide], the IC50 was under 0.1 µM.
For the compound `COc1cc(C(=O)N[C@H]2CC[C@@H](N3CCOCC3)CC2)ccc1Nc1ncc2c(n1)N(C1CCCC1)CC(C)(C)C(=O)N2C` [Compound 389, 4-(9-cyclopentyl-5,7,7-trimethyl-6-oxo-6,7,8,9-tetrahydro-5H-pyrimido[4,5-b][1,4]diazepin-2-ylamino)-3-methoxy-N-((cis)-4-morpholinocyclohexyl)benzamide], the IC50 was in the range of 0.1 to 1 µM.
For `COc1cc(C(=O)N[C@H]2CC[C@H](N3CCOCC3)CC2)ccc1Nc1ncc2c(n1)N(C1CCCC1)CC(C)(C)C(=O)N2C` [Compound 388, 4-(9-cyclopentyl-5,7,7-trimethyl-6-oxo-6,7,8,9-tetrahydro-5H-pyrimido[4,5-b][1,4]diazepin-2-ylamino)-3-methoxy-N-((trans)-4-morpholinocyclohexyl)benzamide], the IC50 was under 0.1 µM.

The same assay, now with this note: Table 6.
Regarding `COc1cc(C(=O)NN2CCN(C)CC2)ccc1Nc1ncc2c(n1)N(C1CCCC1)CC1(CC1)C(=O)N2C` [[254]•HCl, 4-(9′-cyclopentyl-5′-methyl-6′-oxo-5′,6′,8′,9′-tetrahydrospiro[cyclopropane-1,7′-pyrimido[4,5-b][1,4]diazepine]-2′-ylamino)-3-methoxy-N-(4-methylpiperazin-1-yl)benzamide.HCl], the Ki was under 0.01 µM.

Source of the values: US8563542B2 (Cyclacel Limited, priority 2007, dated 2013).
